Laboratory results published in the NIST ThermoML archive (doi:10.1021/je030177j).
± gives the expanded uncertainty stated by the source.

Assay: mn = molality of the nth substance listed, in mol/kg
Details: Liquid, Capillary tube (Ostwald / Ubbelohde) method

O=S(=O)([O-])[O-].[Li+].[Li+] [lithium sulfate] + O
viscosity [mPa·s]
Details | 100 kPa | 10000 kPa | 20000 kPa | 30000 kPa
347.05 K, m1 = 0.1 | – | 0.4034 ± 0.0066 | 0.4061 ± 0.0067 | 0.4088 ± 0.0067
348.15 K, m1 = 0.1 | 0.401 ± 0.0066 | – | – | –
348.15 K, m1 = 0.28 | 0.433 ± 0.0071 | – | – | –
348.15 K, m1 = 0.56 | 0.495 ± 0.0081 | – | – | –
348.15 K, m1 = 0.885 | 0.582 ± 0.0095 | – | – | –
348.95 K, m1 = 0.885 | – | 0.5714 ± 0.0093 | 0.5753 ± 0.0094 | 0.5792 ± 0.0095
349.55 K, m1 = 0.56 | – | 0.4831 ± 0.0079 | 0.4864 ± 0.008 | 0.4897 ± 0.008
351.04 K, m1 = 0.28 | – | 0.415 ± 0.0068 | 0.4183 ± 0.0069 | 0.4215 ± 0.0069
356.84 K, m1 = 0.1 | – | 0.3566 ± 0.0059 | 0.359 ± 0.0059 | 0.3621 ± 0.006
358.15 K, m1 = 0.1 | 0.355 ± 0.0059 | – | – | –
358.15 K, m1 = 0.28 | 0.381 ± 0.0063 | – | – | –
358.15 K, m1 = 0.56 | 0.437 ± 0.0072 | – | – | –
358.15 K, m1 = 0.885 | 0.511 ± 0.0084 | – | – | –
359.14 K, m1 = 0.885 | – | 0.4999 ± 0.0082 | 0.5041 ± 0.0083 | 0.508 ± 0.0083
361.24 K, m1 = 0.56 | – | 0.4168 ± 0.0069 | 0.4191 ± 0.0069 | 0.4222 ± 0.0069
362.74 K, m1 = 0.28 | – | 0.3601 ± 0.006 | 0.363 ± 0.006 | 0.3662 ± 0.006
365.04 K, m1 = 0.1 | – | 0.3241 ± 0.0054 | 0.3265 ± 0.0054 | 0.3291 ± 0.0055
369.72 K, m1 = 0.885 | – | 0.4415 ± 0.0073 | 0.4452 ± 0.0073 | 0.4495 ± 0.0074
372.13 K, m1 = 0.56 | – | 0.3691 ± 0.0061 | 0.3721 ± 0.0062 | 0.3752 ± 0.0062
375.75 K, m1 = 0.28 | – | 0.3127 ± 0.0052 | 0.3153 ± 0.0052 | 0.3181 ± 0.0053
378.85 K, m1 = 0.1 | – | 0.2812 ± 0.0047 | 0.2836 ± 0.0047 | 0.2862 ± 0.0048
379.05 K, m1 = 0.885 | – | 0.3993 ± 0.0066 | 0.4028 ± 0.0067 | 0.4065 ± 0.0067
383.06 K, m1 = 0.28 | – | 0.2916 ± 0.0049 | 0.2942 ± 0.0049 | 0.2974 ± 0.005
384.05 K, m1 = 0.56 | – | 0.3274 ± 0.0054 | 0.3304 ± 0.0055 | 0.3335 ± 0.0055
384.27 K, m1 = 0.885 | – | 0.3782 ± 0.0063 | 0.382 ± 0.0063 | 0.3861 ± 0.0064
389.16 K, m1 = 0.1 | – | 0.2554 ± 0.0043 | 0.2577 ± 0.0043 | 0.2599 ± 0.0044
390.35 K, m1 = 0.56 | – | 0.3089 ± 0.0052 | 0.3124 ± 0.0052 | 0.3154 ± 0.0053
390.42 K, m1 = 0.28 | – | 0.2721 ± 0.0046 | 0.275 ± 0.0046 | 0.2784 ± 0.0047
390.72 K, m1 = 0.885 | – | 0.355 ± 0.0059 | 0.3591 ± 0.006 | 0.3633 ± 0.006
397.35 K, m1 = 0.885 | – | 0.3337 ± 0.0056 | 0.3371 ± 0.0056 | 0.3406 ± 0.0057
399.95 K, m1 = 0.28 | – | 0.2502 ± 0.0042 | 0.2528 ± 0.0043 | 0.2555 ± 0.0043
400.84 K, m1 = 0.1 | – | 0.2306 ± 0.0039 | 0.2331 ± 0.004 | 0.236 ± 0.004
401.73 K, m1 = 0.56 | – | 0.2797 ± 0.0047 | 0.2827 ± 0.0047 | 0.2855 ± 0.0048
405.24 K, m1 = 0.885 | – | 0.3115 ± 0.0052 | 0.3152 ± 0.0053 | 0.3194 ± 0.0053
409.36 K, m1 = 0.28 | – | 0.2314 ± 0.0039 | 0.234 ± 0.004 | 0.2369 ± 0.004
410.95 K, m1 = 0.1 | – | 0.2126 ± 0.0036 | 0.215 ± 0.0037 | 0.2192 ± 0.0037
411.05 K, m1 = 0.56 | – | 0.2584 ± 0.0044 | 0.2613 ± 0.0044 | 0.2644 ± 0.0045
415.13 K, m1 = 0.56 | – | 0.2502 ± 0.0042 | 0.2531 ± 0.0043 | 0.2564 ± 0.0043
415.76 K, m1 = 0.885 | – | 0.286 ± 0.0048 | 0.2901 ± 0.0049 | –
